The text below walks through data of publication PMC12389415, “Killer Peptide-Containing Polyelectrolytic Nanocomplexes to Fight Toxoplasma gondii Infection” (Pharmaceutics, 2025).

Like-named read-outs stand apart in the source and are kept apart here. Where a SMILES comes first, the peptide text is derived from it. Some results are limits rather than exact numbers.

Data set [1] concerns T. gondii β-gal-RH (Type I) intracellular tachyzoites in HFFs. As to the kind of experiment: Toxo-β-gal assay, post-infection model (intracellular parasites). It is filed as cell-based, Toxoplasma gondii. The conditions noted are these: dose-response, 48 h. The method, then:
T. gondii β-gal-RH (Type I) is a genetically modified strain constitutively expressing β-galactosidase under the control of the promoter SAG1 (constitutive promoter). Susceptibility of T. gondii β-gal to the tested compounds was assessed by determining IC50 values based on β-galactosidase assay, as described by Păunescu et al. Briefly, HFFs (5 × 10^3/well) were seeded into 96-well plates, and once confluent, 200 µL of a suspension of parasites prepared in DMEM + 10% FBS at the concentration of 7.5 × 10^4/mL was added to each well resulting in 1.5 × 10^4 parasites per well.
Plates were incubated for 48 h 37 °C, 5% CO2, then cultures were washed once with 200 μL/well of PBS 1×. […] In total, 10 μL of 5 mM chlorophenol red-β-D-galactopyranoside (CPRG) was added to each well, and the reaction was monitored until saturation (usually reached in 30 min) by repeatedly measuring absorbance at 570 nm. The values obtained from the initial readings were subtracted from the respective final readings, and from these, the averages of each group were calculated. This was followed by calculation of the standard deviation and the calculation of percentage (normalized) absorbance, which was obtained from a ratio between the mean of the treatments and the mean of the negative control (DMEM 10% FBS), multiplied by 100. […]

The subject of data set [2] is T. gondii free tachyzoites. The data set can be described thus: Free tachyzoites exposure, parasite quantification by real-time PCR (B1 gene). The data set is classed as cell-based, Toxoplasma gondii. How it is done: Additionally, the same experiment was performed in duplicate to extract DNA for subsequent quantification of the parasite using real-time PCR CFX96™ Biorad® (version 3.1) (without using coverslips in the wells). The protocol by Santoro et al., amplifying the target B1 gene using Taqman technology, was optimized by defining the appropriate annealing temperature and amplification cycles. A standard curve for quantification was generated using T. gondii RH-WT grown in HFF cells, to ensure consistency in the results. DNA was extracted with the commercial kit Invitrogen PureLink™ Genomic DNA Mini Kit (Thermo Fisher Scientific, Waltham, Massachusetts, USA) from infected cells (control/treatment) 48 h after seeding, and it was used for amplification of the B1 gene.
The resulting product was loaded onto an agarose gel, and the corresponding band was excised for DNA quantification (12.3 ng/µL). From this, the number of copies per µL (1.1 × 10^11) was calculated using Copy Number Calculator (accessed on 11 April 2025)), and a standard curve was generated via serial dilutions (starting from a concentration of 10^8 copies of DNA/µL down to 10^2 copies of DNA/µL). Each condition was tested in four wells; three independent experiments were conducted.
Background: Real-time PCR tracks product formation cycle by cycle.

A short description of data set [3]: Stability of free KP and KP-NPs under stress conditions (60 °C, acid, alkali). The note with it: 2 h, Micro BCA. The method, then:
Moreover, KP-NPs were exposed to harsh conditions, to assess the ability of the formulation to protect KP from environmental degradation. […] These three samples were exposed to high temperatures (60 °C) for 2 h, then particle size and KP content were evaluated as described above.
To further assess the stability of KP-NPs and their potential protective effect on KP, both free KP and KP-NPs were subjected to harsh stress conditions, namely high temperature (60 °C) and strong acidic or alkaline environment (0.1 M HCl or NaOH) for two hours. […] As for nanoparticles, particle size was checked (Table 3), and the amount of KP released quantified.

For data set [4] the following is noted: supplier data; ref Thermo Scientific; cited from earlier work. The source says: Killer peptide ([…], MW: 998.2, isoelectric point: 8.97) was acquired from Thermo Scientific (Rockford, IL, USA). Sodium hyaluronate (Hyal, MW: 15–30 kDa) was obtained from Contipro (Praha, Czech Republic). Chitosan (Chito, MW: 66 kDa, degree of deacetylation: 96%) was from Primex (Siglufjordur, Iceland). Acetic acid was from Merck. Ultrapure (UP) water was obtained by inverse osmosis using an Arium Comfort® system by Sartorius (Gottingen, Germany). Solvents and reagents were from Avantor, VWR, unless otherwise specified. Resazurin and chlorophenol red-β-D-galactopyranoside (CPRG) were ...

The procedure of data set [5]:
Before formulation, peptide solubility and gelation properties were evaluated by dispersing the powder in different solvents, namely ultrapure water, phosphate-buffered saline, ethanol, methanol, or isopropanol, to evaluate its solubility and gelation properties and select the more appropriate formulative approach by microfluidics.
The solubility of KP and the flowability of the resulting solution are critical elements for microfluidic processing, since viscous solutions cannot be used, as they alter laminar flow conditions or clog the chip’s channels. For this reason, common solvents were screened to select those providing the highest solubility, to prevent spontaneous precipitation of the peptide, without neglecting their acceptability from the toxicological point of view.

Data set [6] has as its system intracellular tachyzoites of T. gondii. The conditions noted are these: in vitro; cited from earlier work. The source says:
From a parasitological point of view, the fact that the nanoparticles developed here are effective against T. gondii, also without KP, is very intriguing and represents a novel finding. In fact, to the best of our knowledge, no literature describes a parasiticidal role of hyaluronate; while some studies have investigated the parasiticidal activity of chitosan-based nanoparticles, this was limited to the extracellular form or fre ...

[7] abbreviates: real-time PCR B1 gene, 48 h, KP 250 µg/mL or corresponding NPs.

With `CSCC[C@H](NC(=O)[C@@H](NC(=O)[C@@H](NC(=O)[C@H](CCCCN)NC(=O)[C@H](C)N)C(C)C)[C@@H](C)O)C(=O)N[C@H](C(=O)N[C@@H](CS)C(=O)N[C@@H](CO)C(=O)N[C@@H](C)C(=O)N[C@@H](CO)C(=O)O)[C@@H](C)O` [KP] (H-AKVTMTCSAS-OH; N-terminus and C-terminus assumed), in data set [1], the “Efficacy against intracellular T. gondii (in words)” value was “did not exhibit any efficacy”. Besides, the “% Reduction Rate (parasite load)” value in data set [2] (compared to the control (DMEM), KP 250 µg/mL or corresponding NPs) is given as 94.6%. Further, in data set [2] (setting [7]), the “Log SQ” value is reported as 3.741 and the “SQ Mean” value is 6041. The “Cq Mean” value in data set [2] (real-time PCR B1 gene, DNA extracted 48 h after seeding, KP 250 µg/mL or corresponding NPs) is given as 28.17. In data set [2] (vs DMEM control), this molecule registered an FC of 0.072 and a ΔCq of 3.80. Further, the “Recovery of peptide after stress” value in data set [3] (acidic conditions (0.1 M HCl), 60 °C) is “full recovery”. For the same molecule, the “Peptide degraded after stress” value in data set [3] (alkaline conditions (0.1 M NaOH), 60 °C) is “approximately 20%”. Also, the “Recovery of peptide after stress” value in data set [3] (high temperature (60 °C)) is given as “full recovery”. Further, in data set [4], the isoelectric point is recorded as 8.97. For the same molecule, in data set [5] (KP 3.5 mg/mL, room temperature), the “Sol-gel transition kinetics in water” value was “over the course of two days”. Also, in data set [5] (KP 5 mg/mL), the “Sol-gel transition kinetics in water” value is given as “almost instantaneous”. Also, the Gelation in ethanol entry in data set [5] (after dissolution at 2 mg/mL) is recorded as “almost immediate transition, leading to the formation of a thick gel”. In addition, the Solubility in ethanol in data set [5] (at least up to) is ≥ 2000 µg/mL. Besides, the “Solubility in PBS” value in data set [5] (phosphate-buffered saline) is recorded as “practically insoluble”. In data set [5] (powder dispersed in solvent), the Solubility in acetone result is on record as “practically insoluble” and the Solubility in isopropanol entry was “practically insoluble”. In data set [5] (verified up to), the Solubility in methanol is ≥ 2000 µg/mL.
With spiramycin, in data set [6], the 50% inhibitory concentration (IC50) was 218 µg/mL.

As a reminder, the IC50 is the midpoint of a concentration-inhibition curve.
